By IC50 is commonly meant the concentration at which inhibition is half-maximal.

Chain of EGFR (P00533 25-1210): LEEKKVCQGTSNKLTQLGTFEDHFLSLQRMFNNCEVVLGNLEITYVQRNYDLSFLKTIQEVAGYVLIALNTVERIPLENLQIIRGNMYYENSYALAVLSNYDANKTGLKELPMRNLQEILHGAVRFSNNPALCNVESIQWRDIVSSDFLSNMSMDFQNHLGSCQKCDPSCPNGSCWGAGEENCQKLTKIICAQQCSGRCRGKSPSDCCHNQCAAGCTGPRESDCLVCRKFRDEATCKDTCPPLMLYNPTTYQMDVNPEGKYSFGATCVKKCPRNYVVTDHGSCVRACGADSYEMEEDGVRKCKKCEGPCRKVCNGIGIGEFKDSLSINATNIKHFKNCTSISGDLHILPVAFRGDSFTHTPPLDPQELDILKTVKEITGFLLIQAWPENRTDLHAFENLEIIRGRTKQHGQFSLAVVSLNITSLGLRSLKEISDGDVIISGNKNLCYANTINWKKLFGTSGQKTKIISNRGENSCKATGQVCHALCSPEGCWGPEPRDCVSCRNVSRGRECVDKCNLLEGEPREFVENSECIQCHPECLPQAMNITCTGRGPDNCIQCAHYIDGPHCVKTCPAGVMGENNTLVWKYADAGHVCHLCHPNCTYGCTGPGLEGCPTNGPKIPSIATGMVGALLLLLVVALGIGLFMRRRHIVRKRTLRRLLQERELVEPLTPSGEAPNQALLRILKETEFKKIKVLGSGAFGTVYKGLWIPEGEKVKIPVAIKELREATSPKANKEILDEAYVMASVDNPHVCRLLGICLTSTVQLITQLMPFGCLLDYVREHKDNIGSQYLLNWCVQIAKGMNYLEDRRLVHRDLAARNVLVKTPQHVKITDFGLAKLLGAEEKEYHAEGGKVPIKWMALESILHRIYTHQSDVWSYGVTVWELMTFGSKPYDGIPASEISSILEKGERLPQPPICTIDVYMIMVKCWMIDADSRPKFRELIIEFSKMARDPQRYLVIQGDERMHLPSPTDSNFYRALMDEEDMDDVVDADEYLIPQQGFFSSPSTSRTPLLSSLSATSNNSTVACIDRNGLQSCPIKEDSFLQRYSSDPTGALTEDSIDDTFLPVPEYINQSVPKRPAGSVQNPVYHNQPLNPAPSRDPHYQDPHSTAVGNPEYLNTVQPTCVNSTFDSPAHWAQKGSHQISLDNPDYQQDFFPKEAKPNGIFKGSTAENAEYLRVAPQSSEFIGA

The target in this assay is EGFR (Homo sapiens, UniProt P00533). The assay is described as follows: EGFR assay (cellular ELISA, NIH 3T3/C7 cells). Further details: expressed in transfected cells; host or cells: NIH 3T3/C7. Conditions: read-out: cell EGF IC50. The format is cell-based. How it is done:
EGF Receptor kinase activity in cells genetically engineered to express human EGF-R can be measured as described below:
Materials and Reagents. • a. […] 05-101 (UBI) (a monoclonal antibody recognizing an EGFR extracellular domain). • c. Anti-phosphotyosine antibody (anti-Ptyr) (polyclonal). • d. Detection antibody: Goat anti-rabbit IgG horse radish peroxidase conjugate, TAGO, Inc. Burlingame, Calif. • e. TBST buffer:
• Keep solution in dark at 4° C. until used. • h. Stock reagents of:
Pre-coat ELISA Plate • 1. […] Coated plates are good for up to 10 days when stored at 4° C. • 2. On day-of use, remove coating buffer and replace with blocking buffer (5% Carnation Instant NonFat Dry Milk in PBS). Incubate the plate, shaking, at room temperature (about 23° C. to 25° C.) for 30 minutes. Just prior to use, remove blocking buffer and wash plate 4 times with TBST buffer.
Seeding Cells • 1. […] Choose dishes having 80-90% confluence for the experiment. Trypsinize cells and stop reaction by adding 10% CS DMEM medium. Suspend cells in DMEM medium (10% CS DMEM medium) and centrifuge once at 1000 rpm at room temperature for 5 minutes. • 3. Resuspend cells in seeding medium (DMEM, 0.5% bovine serum), and count the cells using trypan blue. Viability above 90% is acceptable. Seed cells in DMEM medium (0.5% bovine serum) at a density of 10,000 cells per well, 100 μl per well, in a 96 well microtiter plate. Incubate seeded cells in 5% CO2 at 37° C. for about 40 hours.
Assay Procedures. • 1. Check seeded cells for contamination using an inverted microscope. Dilute test compounds stock (10 mg/ml in DMSO) 1:10 in DMEM medium, then transfer 5 μl to a test well for a test compounds drug dilution of 1:200 and a final DMSO concentration of 1%. Control wells receive DMSO alone. Incubate in 5% CO2 at 37° C. for one hour. • 2. Prepare EGF ligand: dilute stock EGF in DMEM so that upon transfer of 10 μl dilute EGF (1:12 dilution), 25 nM final concentration is attained. • 3. Prepare fresh 10 ml HNTG* sufficient for 100 μl per well wherein HNTG* comprises: HNTG stock (2.0 ml), milli-Q H2O (7.3 ml), EDTA, 100 mM, pH 7.0 (0.5 ml), Na3VO4 0.5 M (0.1 ml) and Na4(P2O7), 0.2 M (0.1 ml). • 4. Place on ice. • 5. After two hours incubation with drug, add prepared EGF ligand to cells, 10 μl per well, to yield a final concentration of 25 nM. Control wells receive DMEM alone. Incubate, shaking, at room temperature, for 5 minutes. • 6. Remove test compound, EGF, and DMEM. Wash cells twice with PBS. Transfer HNTG* to cells, 100 μl per well. Place on ice for 5 minutes. Meanwhile, remove blocking buffer from other ELISA plate and wash with TBST as described above. • 7. With a pipette tip securely fitted to a micropipettor, scrape cells from plate and homogenize cell material by repeatedly aspirating and dispensing the HNTG* lysis buffer. Transfer lysate to a coated, blocked, and washed ELISA plate. Incubate shaking at room temperature for one hour. • 8. Remove lysate and wash 4 times with TBST. Transfer freshly diluted anti-Ptyr antibody to ELISA plate at 100 μl per well. Incubate shaking at room temperature for 30 minutes in the presence of the anti-Ptyr antiserum (1:3000 dilution in TBST). • 9. Remove the anti-Ptyr antibody and wash 4 times with TBST. Transfer the freshly diluted TAGO 30 anti-rabbit IgG antibody to the ELISA plate at 100 μl per well. Incubate shaking at room temperature for 30 minutes (anti-rabbit IgG antibody: 1:3000 dilution in TBST). • 10. Remove detection antibody and wash 4 times with TBST. Transfer freshly prepared ABTS/H2O2 solution to ELISA plate, 100 μl per well. Incubate at room temperature for 20 minutes. ABTS/H2O2 solution: 1.2 μl 30% H2O2 in 10 ml ABTS stock. • 11. Stop reaction by adding 50 μl 5N H2SO4 (optional), and determine O.D. at 410 nm. • 12. The maximal phosphotyrosine signal is determined by subtracting the value of the negative controls from the positive controls. […]
In general terms: In an ELISA, binding on a coated surface is turned into a signal by an enzyme label.
For the compound `COc1ccc(/C=C2\C(=O)Nc3cccc(C)c32)cc1C(C)C` [Example 38, 3-(3-Isopropyl-4-methoxybenzylidene)-4-methyl-1,3-dihydroindol-2-one], the half-maximal inhibitory concentration (IC50) is > 100 µM.
Under `COc1ccc(/C=C2/C(=O)Nc3ccc(CCN4CCOCC4)cc32)cc1-c1ccsc1` [Example 26, 3-(4-Methoxy-3-thiophen-3-ylbenzylidene)-5-(2-morpholin-4-yl-ethyl)-1,3-dihydroindol-2-one] stands 94 µM; under `COc1c(C(C)C)cc(/C=C2/C(=O)Nc3cc(F)ccc32)cc1C(C)C` [Example 22, 3-(3,5-Diisopropyl-4-methoxybenzylidene)-6-fluoro-1,3-dihydroindol-2-one], > 100 µM.
Under `COc1ccc(/C=C2/C(=O)Nc3ccc(F)cc32)cc1-c1ccccc1` [Example 37, 5-Fluoro-3-(6-methoxybiphenyl-3-ylmethylene)-1,3-dihydroindol-2-one] stands > 100 µM; under `CCc1ccc2c(c1)/C(=C\c1cc(C(C)C)c(OC)c(C(C)C)c1)C(=O)N2` [Example 28, 3-(3,5-Diisopropyl-4-methoxbenzylidene)-5-ethyl-1,3-dihydroindol-2-one], > 100 µM; under `Cc1cc(CCC(=O)O)c(/C=C2\C(=O)Nc3cc(-c4ccc(F)cc4)ccc32)[nH]1` [Example 107, 3-{2-[6-(4-Fluorophenyl)-2-oxo-1,2-dihydroindol-3-ylidenemethyl]-5-methyl-1H-pyrrol-3-yl}propionic acid], > 100 µM.
Under `COc1ccc(/C=C2/C(=O)Nc3ncccc32)cc1C1CCCCC1` [Example 72, 3-(3-Cyclohexyl-4-methoxybenzylidene)-1,3-dihydropyrrolo[2,3-b]pyridin-2-one] stands > 100 µM.
Consider `COc1ccc(/C=C2/C(=O)Nc3ccccc32)cc1-c1ccsc1` [Example 35, 3-(4-Methoxy-3-thiophen-3-ylbenzylidene)-1,3-dihydroindol-2-one], for which the IC50 is > 100 µM.
Under `O=C1Nc2ccc(Cl)cc2/C1=C\c1ccc2c(c1)CCO2` [Example 14, 5-Chloro-3-(2,3-dihydro-benzofuran-5-ylmethylene)-1,3-dihydroindol-2-one] stands > 100 µM; under `CC(=O)Nc1ccc2c(c1)NC(=O)/C2=C\c1ccc2c(c1)CCC(C)(C)O2` [Example 33, N-[3-(2,2-Dimethylchroman-6-ylmethylene)-2-oxo-2,3-dihydro-1H-indol-6-yl]-acetamide], 53.2 µM; under `COc1ccc(C=C2C(=O)Nc3cc(NC(C)=O)ccc32)cc1-c1cccc(NC(C)=O)c1` (mixture of isomers) [Example 63, N-[3-(3′-Acetylamino-6-methoxybiphenyl-3-ylmethylene)-2-oxo-2,3-dihydro-1H-indol-6-yl]-acetamide], > 100 µM.
For `O=C1Nc2ccc(F)cc2/C1=C\c1ccc2c(c1)CCO2` [Example 42, 3-(2,3-Dihydrobenzofuran-5-ylmethylene)-5-fluoro-1,3-dihydroindol-2-one], the concentration for half-maximal inhibition (IC50) is > 100 µM.
Regarding `COc1ccc(/C=C2/C(=O)Nc3ccc(Cl)cc32)cc1-c1cccs1` [Example 59, 5-chloro-3-(4-Methoxy-3-thiophen-2-ylbenzylidene)-1,3-dihydroindol-2-one], the IC50 is > 100 µM.
Under `COc1ccc(/C=C2/C(=O)Nc3ccccc32)cc1C(C)C` [Example 7, 3-(3-Isopropyl-4-methoxybenzylidene)-1,3-dihydroindol-2-one] stands 40.4 µM.
Under `COc1cc(C)c(/C=C2/C(=O)Nc3ncccc32)cc1C(C)C` [Example 45, 3-(5-Isopropyl-4-methoxy-2-methylbenzylidene)-1,3-dihydro-pyrrolo[2,3-b]pyridin-2-one] stands > 100 µM; under `CC(=O)Nc1ccc2c(c1)NC(=O)/C2=C/c1ccc(OCCN2CCOCC2)c(-c2cccs2)c1` [Example 40, N-{3-[4-(2-Morpholin-4-ylethoxy)-3-thiophen-2-ylbenzylidene]-2-oxo-2,3-dihydro-1H-indol-6-yl}-acetamide], 79 µM.
`COc1c(C)cc(/C=C2/C(=O)Nc3ncccc32)cc1C` [Example 56, 3-(4-Methoxy-3,5-dimethylbenzylidene)-1,3-dihydropyrrolo[2,3-b]pyridin-2-one]: the concentration for half-maximal inhibition (IC50) is > 100 µM.
Under `COc1c(C(C)C)cc(/C=C2/C(=O)Nc3ccc(Br)cc32)cc1C(C)C` [Example 54, 5-Bromo-3-(3,5-diisopropyl-4-methoxybenzylidene)-1,3-dihydroindol-2-one] stands 79.3 µM; under `COc1cc(/C=C2/C(=O)Nc3ccccc32)c(-c2cccs2)cc1OC` [Example 39, 3-(4,5-Dimethoxy-2-thiophen-2-ylbenzylidene)-1,3-dihydroindol-2-one], > 100 µM; under `O=C1Nc2ccc(Br)cc2/C1=C/c1cc2ccccc2[nH]1` [Example 165, 5-Bromo-3-(1H-indol-2-ylmethylene)-1,3-dihydro-indol-2-one], > 100 µM.
Under `COc1ccc(/C=C2/C(=O)Nc3ncccc32)cc1-c1ccccc1` [Example 71, 3-(6-Methoxybiphenyl-3-ylmethylene)-1,3-dihydropyrrolo[2,3-b]pyridin-2-one] stands > 100 µM; under `COc1c(C(C)C)cc(/C=C2\C(=O)Nc3cccc(C)c32)cc1C(C)C` [Example 53, 3-(3,5-Diisopropyl-4-methoxybenzylidene)-4-methyl-1,3-dihydroindol-2-one], 85 µM; under `CC(=O)Nc1ccc2c(c1)NC(=O)/C2=C/c1ccc(OCCN2CCOCC2)c(-c2ccsc2)c1` [Example 50, N-{3-[4-(2-Morpholin-4-ylethoxy)-3-thiophen-3-ylbenzylidene]-2-oxo-2,3-dihydro-1H-indol-6-yl}-acetamide], > 100 µM.
Under `COc1ccc(/C=C2/C(=O)Nc3ccccc32)cc1-c1ccccc1` [Example 65, 3-(6-Methoxybiphenyl-3-ylmethylene)-1,3-dihydroindol-2-one] stands > 100 µM; under `Cc1cc(CCC(=O)O)c(/C=C2\C(=O)Nc3ccc(Cl)cc32)[nH]1` [Example 111, 3-[2-(5-Chloro-2-oxo-1,2-dihydroindol-3-ylidenemethyl)-5-methyl-1H-pyrrol-3-yl]propionic acid], > 100 µM.
As for `CC1(C)CCc2cc(/C=C3/C(=O)Nc4ccc(F)cc43)ccc2O1` [Example 23, 3-(2,2-Dimethylchroman-6-ylmethylene)-5-fluoro-1,3-dihydroindol-2-one], the half-maximal inhibitory concentration (IC50) came to 37.7 µM.
For the compound `COc1ccc(/C=C2/C(=O)Nc3cc(NC(C)=O)ccc32)cc1-c1cccs1` [Example 31, N-[3-(4-Methoxy-3-thiophen-2-ylbenzylidene)-2-oxo-2,3-dihydro-1H-indol-6-yl]-acetamide], the 50% inhibitory concentration (IC50) is 29.6 µM.
Under `COc1ccc(/C=C2/C(=O)Nc3ncccc32)cc1C1CCCC1` [Example 47, 3-(3-Cyclopentyl-4-methoxybenzylidene)-1,3-dihydropyrrolo[2,3-b]pyridin-2-one] stands > 100 µM.
Under `COc1c(C(C)C)cc(/C=C2/C(=O)Nc3cc(N)ccc32)cc1C(C)C` [Example 32, 6-Amino-3-(3,5-diisoprotyl-4-methoxy-benzylidene)-1,3-dihydroindol-2-one] stands > 100 µM.

The record behind these values is patent US6855730B2, “3-methylidenyl-2-indolinone modulators of protein kinase” (Sugen, Inc., priority 1998, dated 2005).
